Measurements published in publication PMC11648915, “Identification and development of TRPM4 antagonists to counteract neuronal excitotoxicity” (iScience, 2024).
“And” between values parts separate entries of the source, which are not always exact repeats. Identical values can stand only once. Like-named read-outs stand apart in the source and are kept apart here. Each block holds one molecule with its values, some of them ahead of it.

Assays:
human TRPM4 = human TRPM4 (Homo sapiens, UniProt Q8TD43); assay: QPatch automated patch clamp on TRPM4-expressing HEK293 cells; format: cell-based; settings: hsTRPM4-expressing HEK293 cells
Method: QPatchHTX, an automated electrophysiology platform, was used in single hole mode. One day before use human TRPM4- or TRPM5-expressing HEK293 cells were seeded in a T75 flask at a density of 53k cells per cm^2 and at passages < 23. […] The extracellular solution was (in mM): CaCl2 (7), MgCl2 (2), KCl (5), HEPES (10), NaCl (70), NMDG (70); pH 7.4 with NaOH. The intracellular solution was (in mM): HEPES (10), NMDG (100), NaCl (50), EGTA (20), MgCl2 (1), CaCl2 (21); pH 7.2 with HCl. […] This protocol was repeated every 7 seconds. […] FFA was used as reference compound and applied cumulatively with each concentration incubating at a minimum of 20 voltage protocol runs (140 seconds) with the current after addition of FFA being calculated as full block. […] Each compound was measured at least 3 time independently.

[1] = In vivo pharmacokinetics after single i.p. or i.v. dose; settings: female, C57BL/6J, mouse
Method: Next, to assess in vivo availability of the Series 1–3 compounds, we evaluated drug metabolism and pharmacokinetics (DMPK). We measured compound concentrations in plasma, heart, and brain at several time points after intraperitoneal (i.p.) or intravenous (i.v.) single-dose injections.
Half-life and bioavailability were calculated by noncompartmental analysis using the R package PK[84] (v1.3-6).

human TRPM5 = molecular target: T1, human TRPM5 (Homo sapiens, UniProt Q9NZQ8); assay: QPatch automated patch clamp on TRPM5-expressing HEK293 cells; format: cell-based; settings: hsTRPM5-expressing HEK293 cells
T1 sequence (Q9NZQ8 1-1165): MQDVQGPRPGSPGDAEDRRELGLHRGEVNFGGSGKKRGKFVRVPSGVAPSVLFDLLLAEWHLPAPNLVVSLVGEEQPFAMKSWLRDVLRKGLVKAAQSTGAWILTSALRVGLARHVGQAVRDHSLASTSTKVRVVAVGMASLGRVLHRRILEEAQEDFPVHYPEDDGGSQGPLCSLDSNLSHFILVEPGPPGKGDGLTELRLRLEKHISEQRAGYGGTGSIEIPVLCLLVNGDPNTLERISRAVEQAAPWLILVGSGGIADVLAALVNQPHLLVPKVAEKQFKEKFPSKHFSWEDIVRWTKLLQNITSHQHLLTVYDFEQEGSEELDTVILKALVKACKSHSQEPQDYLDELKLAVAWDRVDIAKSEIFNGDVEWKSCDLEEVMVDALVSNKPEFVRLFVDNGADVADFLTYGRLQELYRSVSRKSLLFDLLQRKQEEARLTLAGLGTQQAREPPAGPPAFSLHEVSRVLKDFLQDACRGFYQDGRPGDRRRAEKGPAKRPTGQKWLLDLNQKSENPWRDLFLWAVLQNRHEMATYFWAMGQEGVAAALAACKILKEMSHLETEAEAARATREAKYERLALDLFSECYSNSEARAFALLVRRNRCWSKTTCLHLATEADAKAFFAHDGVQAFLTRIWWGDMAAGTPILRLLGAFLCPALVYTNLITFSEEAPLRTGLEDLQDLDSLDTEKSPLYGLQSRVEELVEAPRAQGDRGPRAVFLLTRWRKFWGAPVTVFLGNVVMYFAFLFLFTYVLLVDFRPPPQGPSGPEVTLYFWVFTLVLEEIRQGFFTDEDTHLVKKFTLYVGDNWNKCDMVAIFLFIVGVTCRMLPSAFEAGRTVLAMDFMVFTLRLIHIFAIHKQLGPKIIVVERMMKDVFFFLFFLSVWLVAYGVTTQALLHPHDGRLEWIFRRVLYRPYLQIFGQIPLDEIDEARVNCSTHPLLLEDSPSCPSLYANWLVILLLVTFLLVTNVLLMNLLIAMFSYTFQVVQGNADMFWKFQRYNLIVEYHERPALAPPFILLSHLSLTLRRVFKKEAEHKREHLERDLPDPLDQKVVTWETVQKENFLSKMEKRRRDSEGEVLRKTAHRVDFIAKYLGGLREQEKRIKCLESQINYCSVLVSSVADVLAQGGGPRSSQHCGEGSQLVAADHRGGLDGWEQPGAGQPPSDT
Text: The counter screening phase involved the inclusion of hsTRPM5-expressing HEK293 cells, as closest homologue, and the parental HEK293 cell line to evaluate selectivity. […] Based on categorization of biological activity, mass spectrometry quality control, and aspects of medicinal chemistry, we prioritized 144 selective hsTRPM4 compounds. These compounds were then subjected to automated patch clamp electrophysiology measurements (QPatch[58]) to evaluate their activity profiles and IC50 values (Figures 1A, S1, and S2).
QPatchHTX, an automated electrophysiology platform, was used in single hole mode. One day before use human TRPM4- or TRPM5-expressing HEK293 cells were seeded in a T75 flask at a density of 53k cells per cm^2 and at passages < 23. For QPatch assays, cells were harvested and re-suspended in SFM (Gibco, 11686029). The extracellular solution was (in mM): CaCl2 (7), MgCl2 (2), KCl (5), HEPES (10), NaCl (70), NMDG (70); pH 7.4 with NaOH. The intracellular solution was (in mM): HEPES (10), NMDG (100), NaCl (50), EGTA (20), MgCl2 (1), CaCl2 (21); pH 7.2 with HCl. After break-in, channels were consistently open and current through the channels could be observed at a voltage ramp from –100 mV to +100 mV over 500 ms. This protocol was repeated every 7 seconds. After saline and vehicle application, the channel was desensitized and residual current was used as baseline. FFA was used as reference compound and applied cumulatively with each concentration incubating at a minimum of 20 voltage protocol runs (140 seconds) with the current after addition of FFA being calculated as full block. […] Each compound was measured at least 3 time independently.

CYP 2C19 = molecular target: T2, CYP 2C19 (Homo sapiens, UniProt P33261); assay: CYP inhibition assay 2C19; format: in vitro ADME
T2 construct: purchased BD Gentest
Method: (§1) The half-maximal inhibitory concentration (IC50) for cytochrome P450 (CYP) enzymes was determined using an in vitro enzyme inhibition assay. Recombinant CYP enzymes or human liver microsomes from BD Gentest, in 0.1 M phosphate buffer pH 7.4, containing native CYP enzymes were incubated with the test compound at various concentrations (1, 3, 10 and 30 μM) and containing 0.5% DMSO and 0.1% BSA final concentrations. 1 mM of NADPH cofactor was added and the reaction was started by a rapid increase of temperature until 37°C.

CYP2D6 = molecular target: T3, CYP2D6 (Homo sapiens, UniProt P10635); assay: CYP inhibition assay 2D6; format: in vitro ADME
T3 construct: purchased BD Gentest
Method: as §1

[2] = Microsome clearance (mouse); format: in vitro ADME; settings: mouse liver microsomes, 45 min, NADPH
Method: (§2) Human or mouse liver microsomes were incubated with the test compound at a concentration of 1 μM for 45 min in the presence of cofactor (NADPH in excess). Samples were collected at various time points, and % remaining of test compound was determined using mass spectrometry (LC-MS/MS) to calculate hepatic clearance rate (L/h/kg).

[3] = Caco-2 permeability assay; format: in vitro ADME; settings: human, heading: Caco-2 perm., direction not given
Method: Caco-2 permeability was evaluated using a cell-based assay with Caco-2 cells cultured on permeable membrane inserts. The test compound was added at 10 μM to the apical (donor) compartment, and samples were collected from the basolateral (receiver) compartment at 120 min. The test compound was also added at 10 μM to the basolateral (donor) compartment, and samples were collected from the apical (receiver) compartment at 120 min. The amount of the compound in both compartments was measured using mass spectrometry (LC-MS/MS). The permeability coefficient (Papp, nm/s) apical to basolateral and basolateral to apical, and an efflux ratio were calculated.

[4] = Microsome clearance (human); format: in vitro ADME; settings: human liver microsomes, 45 min, NADPH, read-out: Microsomes (h) clearance (converted)
Method: as §2

[5] = Parallel Artificial Membrane Permeability Assay (PAMPA); format: in vitro ADME; settings: pH not given
Method: Parallel Artificial Membrane Permeability Assay (PAMPA) was performed using artificial lipid membrane layers to assess passive permeability of the test compound. Test compounds were diluted to 200 μM in system buffer at pH 5.0, 6.2 and 7.4. The solutions were filtered and 150 μL transferred to a High Sensitivity 96 well UV plate. This was analysed by UV as the reference plate. A 200 μL sample of the 200 μM solution was transferred to the ‘donor’ plate of the PAMPA pIon sandwich plate system. 200 μL of acceptor sink buffer was transferred to the ‘acceptor’ plate which had been previously treated with GIT-O lipid solution across the well filter. Donor and acceptor plates were sandwiched and kept in a humid environment at room temperature for 16 hours. On completion of the incubation the donor and acceptor plates were separated. 150 μL of solution was transferred from each of the donor and acceptor PAMPA sandwich plates into High Sensitivity 96 well UV plates for analysis by UV. at different time points. The concentration of the compound in the acceptor compartment was determined using mass spectrometry. The permeability coefficient (Papp) was calculated based on the rate of appearance of the compound in the acceptor compartment (nm/s).

CYP3A4 = molecular target: T4, CYP3A4 (Homo sapiens, UniProt P08684); assay: CYP inhibition assay 3A4; format: in vitro ADME
T4 construct: purchased BD Gentest
Method: as §1

[6] = molecular target: potassium channel human Ether-a-go-go Related Gene (hERG) (Homo sapiens, UniProt Q12809); assay: hERG channel inhibition; format: cell-based
Text: We next used in vitro assays to test absorption, distribution, metabolism, excretion and toxicity (ADMET) parameters for selected compounds. We assessed compound absorption using parallel artificial membrane permeability (PAMPA) and Caco-2 cell permeability assays (cut-off criterion >2 × 10^−6 cm s^−1). […] To assess potential off-target activity of our compounds that could be relevant for safety in humans, we conducted comprehensive in vitro pharmacology using the commercially available and widely used SafetyScreen44 interaction panel[60] covering eight protein families.

[7] = brain, ip, read-out: Brain half-life (converted)
[8] = brain, iv, read-out: Brain half-life (converted)
[9] = heart, ip, read-out: Heart half-life (converted)
[10] = heart, iv, read-out: Heart half-life (converted)
[11] = plasma, ip, read-out: Plasma half-life (converted)
[12] = plasma, iv, read-out: Plasma half-life (converted)

T3 sequence (P10635 whole entry): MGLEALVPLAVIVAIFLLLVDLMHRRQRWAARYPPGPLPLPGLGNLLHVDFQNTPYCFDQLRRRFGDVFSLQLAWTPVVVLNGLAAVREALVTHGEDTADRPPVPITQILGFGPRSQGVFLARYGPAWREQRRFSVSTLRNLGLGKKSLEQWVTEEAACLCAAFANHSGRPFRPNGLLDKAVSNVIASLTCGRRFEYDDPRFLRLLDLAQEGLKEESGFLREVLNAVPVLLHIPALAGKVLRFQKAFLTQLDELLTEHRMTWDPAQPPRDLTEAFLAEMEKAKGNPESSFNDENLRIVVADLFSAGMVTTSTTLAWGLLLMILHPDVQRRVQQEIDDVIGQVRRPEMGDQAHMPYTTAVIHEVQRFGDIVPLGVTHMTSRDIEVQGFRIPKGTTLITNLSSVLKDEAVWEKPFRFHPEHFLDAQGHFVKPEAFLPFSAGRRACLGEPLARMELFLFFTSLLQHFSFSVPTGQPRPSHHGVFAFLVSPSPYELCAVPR
human TRPM4, sequence (Q8TD43 whole entry): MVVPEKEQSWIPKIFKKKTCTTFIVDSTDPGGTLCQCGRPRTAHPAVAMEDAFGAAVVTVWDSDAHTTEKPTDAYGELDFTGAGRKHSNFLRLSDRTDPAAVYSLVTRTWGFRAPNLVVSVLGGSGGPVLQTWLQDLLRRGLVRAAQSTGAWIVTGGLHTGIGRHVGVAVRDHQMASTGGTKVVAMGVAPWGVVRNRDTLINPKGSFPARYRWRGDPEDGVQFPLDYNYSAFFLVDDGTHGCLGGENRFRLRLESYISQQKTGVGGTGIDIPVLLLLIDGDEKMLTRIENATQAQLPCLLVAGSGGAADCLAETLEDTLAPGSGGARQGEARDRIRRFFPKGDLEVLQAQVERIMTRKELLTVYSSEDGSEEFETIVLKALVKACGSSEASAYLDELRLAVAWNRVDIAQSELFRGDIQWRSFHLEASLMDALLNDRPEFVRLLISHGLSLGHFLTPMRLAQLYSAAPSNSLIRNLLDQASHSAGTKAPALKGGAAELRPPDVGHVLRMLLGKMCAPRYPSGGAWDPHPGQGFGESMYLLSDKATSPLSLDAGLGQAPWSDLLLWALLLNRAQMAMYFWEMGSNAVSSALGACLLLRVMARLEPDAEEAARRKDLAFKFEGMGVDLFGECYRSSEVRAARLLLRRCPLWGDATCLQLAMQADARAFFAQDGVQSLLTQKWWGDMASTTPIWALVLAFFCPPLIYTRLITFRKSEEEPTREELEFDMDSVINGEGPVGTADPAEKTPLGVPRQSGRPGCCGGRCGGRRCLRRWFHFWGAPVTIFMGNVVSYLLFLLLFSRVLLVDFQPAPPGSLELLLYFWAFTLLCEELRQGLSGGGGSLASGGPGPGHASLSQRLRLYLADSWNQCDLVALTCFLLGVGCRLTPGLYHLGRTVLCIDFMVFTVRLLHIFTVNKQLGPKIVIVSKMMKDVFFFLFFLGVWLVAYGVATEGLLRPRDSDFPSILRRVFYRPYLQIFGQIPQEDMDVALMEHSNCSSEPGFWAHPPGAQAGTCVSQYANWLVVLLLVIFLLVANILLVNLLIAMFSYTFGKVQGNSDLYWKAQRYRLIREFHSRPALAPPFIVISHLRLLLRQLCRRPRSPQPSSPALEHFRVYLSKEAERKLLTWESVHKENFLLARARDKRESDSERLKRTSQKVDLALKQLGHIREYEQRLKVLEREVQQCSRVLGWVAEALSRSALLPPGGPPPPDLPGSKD
T4 sequence (P08684 whole entry): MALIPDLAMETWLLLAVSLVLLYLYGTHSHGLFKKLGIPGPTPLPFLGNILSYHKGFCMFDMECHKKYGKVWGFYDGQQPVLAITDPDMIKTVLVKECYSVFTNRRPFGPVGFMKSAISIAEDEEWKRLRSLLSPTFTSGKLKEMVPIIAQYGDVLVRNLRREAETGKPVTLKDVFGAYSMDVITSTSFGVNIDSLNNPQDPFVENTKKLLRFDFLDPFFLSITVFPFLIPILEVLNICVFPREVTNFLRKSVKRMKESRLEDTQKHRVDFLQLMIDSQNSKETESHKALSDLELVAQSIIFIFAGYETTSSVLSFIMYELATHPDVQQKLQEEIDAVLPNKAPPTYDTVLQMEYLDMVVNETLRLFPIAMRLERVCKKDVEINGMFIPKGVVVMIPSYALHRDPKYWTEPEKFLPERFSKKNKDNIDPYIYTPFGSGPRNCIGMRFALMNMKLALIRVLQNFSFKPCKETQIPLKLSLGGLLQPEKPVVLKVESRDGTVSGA
potassium channel human Ether-a-go-go Related Gene (hERG), sequence (Q12809 whole entry): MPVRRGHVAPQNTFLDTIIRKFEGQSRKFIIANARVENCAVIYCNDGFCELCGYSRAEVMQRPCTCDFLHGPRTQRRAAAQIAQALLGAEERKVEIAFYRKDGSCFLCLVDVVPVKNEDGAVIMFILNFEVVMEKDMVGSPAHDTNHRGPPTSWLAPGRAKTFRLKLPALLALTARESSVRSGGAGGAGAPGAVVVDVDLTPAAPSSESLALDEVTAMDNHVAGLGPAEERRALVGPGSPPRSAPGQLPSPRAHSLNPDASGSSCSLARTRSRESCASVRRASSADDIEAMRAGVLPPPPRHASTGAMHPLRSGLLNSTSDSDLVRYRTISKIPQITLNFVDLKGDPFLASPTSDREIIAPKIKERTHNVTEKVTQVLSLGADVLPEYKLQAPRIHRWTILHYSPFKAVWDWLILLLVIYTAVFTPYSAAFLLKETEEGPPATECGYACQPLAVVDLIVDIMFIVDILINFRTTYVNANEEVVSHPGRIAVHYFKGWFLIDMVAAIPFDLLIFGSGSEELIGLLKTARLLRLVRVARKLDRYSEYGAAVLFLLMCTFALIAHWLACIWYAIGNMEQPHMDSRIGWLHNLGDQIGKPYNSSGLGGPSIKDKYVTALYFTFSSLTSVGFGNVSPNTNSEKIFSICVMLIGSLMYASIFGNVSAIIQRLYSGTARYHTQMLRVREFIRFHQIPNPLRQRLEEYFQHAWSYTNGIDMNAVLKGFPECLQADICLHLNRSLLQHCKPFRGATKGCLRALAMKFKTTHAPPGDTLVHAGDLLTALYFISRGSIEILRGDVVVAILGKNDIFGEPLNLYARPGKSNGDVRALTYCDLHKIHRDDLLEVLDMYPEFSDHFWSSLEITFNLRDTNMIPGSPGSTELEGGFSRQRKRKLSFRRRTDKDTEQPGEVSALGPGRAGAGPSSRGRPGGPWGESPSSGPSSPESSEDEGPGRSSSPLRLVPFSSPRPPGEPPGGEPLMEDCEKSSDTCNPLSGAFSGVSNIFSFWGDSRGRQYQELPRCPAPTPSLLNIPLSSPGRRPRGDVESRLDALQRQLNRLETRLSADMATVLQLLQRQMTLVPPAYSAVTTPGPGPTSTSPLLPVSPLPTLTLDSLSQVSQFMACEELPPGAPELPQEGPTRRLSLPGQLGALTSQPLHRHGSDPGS
T2 sequence (P33261 whole entry): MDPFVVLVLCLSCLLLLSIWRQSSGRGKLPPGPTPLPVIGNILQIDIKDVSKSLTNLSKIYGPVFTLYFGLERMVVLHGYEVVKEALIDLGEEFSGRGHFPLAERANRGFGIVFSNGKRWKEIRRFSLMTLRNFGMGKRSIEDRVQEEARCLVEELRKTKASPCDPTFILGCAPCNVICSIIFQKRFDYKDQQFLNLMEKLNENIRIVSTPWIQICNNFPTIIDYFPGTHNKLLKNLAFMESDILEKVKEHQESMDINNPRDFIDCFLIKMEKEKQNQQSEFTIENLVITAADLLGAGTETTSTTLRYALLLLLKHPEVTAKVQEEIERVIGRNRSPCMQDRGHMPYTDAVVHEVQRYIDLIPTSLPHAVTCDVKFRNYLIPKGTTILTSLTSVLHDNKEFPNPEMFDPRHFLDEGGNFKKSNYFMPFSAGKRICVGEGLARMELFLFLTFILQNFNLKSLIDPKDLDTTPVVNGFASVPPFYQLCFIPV

half-life [1, 7]: 3.9 h
half-life [1, 8]: 4.2 h
half-life [1, 9]: 3.3 h
half-life [1, 10]: 3.5 h
half-life [1, 11]: 2.9 h
half-life [1, 12]: 2.8 h
SMILES: Cc1noc(-c2csc(S(=O)(=O)Nc3ccccc3C(F)(F)F)c2)c1C [CMP157]
IC50 (human TRPM4): 360 nM

IC50 (human TRPM5): > 30000 nM
SMILES: O=C(O)c1cc(Br)ccc1NS(=O)(=O)c1ccc(Cl)cc1 [CMP116]
IC50 (human TRPM4): 1870 nM

IC50 (human TRPM5): > 30000 nM
SMILES: O=C(CCc1ccccc1)Nc1ccc(Cl)cc1C(=O)O [CMP493]
IC50 (human TRPM4): 530 nM

SMILES: O=c1cc(NC2CCCCCC2)nc2ccc(Cl)cn12 [CMP111]
IC50 (human TRPM4): 170 nM and 110 nM

IC50 (CYP 2C19): 4000 nM
IC50 (CYP2D6): > 50000 nM
IC50 (human TRPM5): > 30000 nM
CLint scaled at 1 μM [2]: 900 mL/min/kg
Papp at 120 min, 10 μM [3]: 23.3 ×10⁻⁶ cm/s
CLint scaled at 1 μM [4]: 302 mL/min/kg
Papp at 16 h, 200 μM ([5]; PAMPA, read-out: PAMPA perm.): 25 ×10⁻⁶ cm/s
SMILES: CNc1cccc(-c2ccccc2NCc2nc3ccccc3o2)c1 [CMP462]

IC50 (human TRPM5): 940 nM
SMILES: O=C(CCc1cccc(Cl)c1)Nc1ccc(Br)cc1C(=O)O [CMP512]
IC50 (human TRPM4): 410 nM

IC50 (CYP2D6; human, pH 7.4): > 50000 nM
IC50 (human TRPM5): > 30000 nM
IC50 (CYP3A4; human, pH 7.4): > 50000 nM
PAMPA perm. [5]: no detection
SMILES: CCCNc1cccc(-c2ccccc2NCc2nc3ccccc3o2)c1 [CMP471]

IC50 (CYP2D6): > 50000 nM
IC50 (human TRPM5): > 10000 nM
CLint scaled at 1 μM [2]: > 900 mL/min/kg
half-life [1, 7]: 2.6 h
half-life [1, 8]: 1.6 h
half-life [1, 9]: 4.3 h
half-life [1, 10]: 4.8 h
half-life [1, 11]: 4.5 h
half-life [1, 12]: 1.5 h
IC50 (CYP3A4; TDI, read-out: Cyp IC50 TDI 3A4): > 50000 nM
IC50 (CYP3A4; read-out: Cyp IC50 3A4): > 50000 nM
CLint scaled at 1 μM [4]: 460 mL/min/kg
SMILES: Cc1ccc(-c2ccccc2NCc2nc3ccccc3o2)s1 [CMP354]
IC50 [6]: > 10000 nM
